# Source: ChEMBL document CHEMBL1201862, “PubChem BioAssay data set” (2004)
# Calls of active or inactive are those of the source.
# Experiments:
# Cannabinoid receptor 2 [1] = target: T1, Cannabinoid receptor 2 (Homo sapiens, UniProt P34972); assay: SAR analysis of antagonists of the Cannabinoid Receptor 2 using an Image-Based Assay - Set 2. [Related pubchem assays (depositor defined):AID1961, AID1965]; assay type: functional
# Cannabinoid receptor 2 [2] = target: T1, Cannabinoid receptor 2; assay: SAR analysis of agonists of the Cannabinoid Receptor 2 using an Image-Based Assay - Set 2. [Related pubchem assays (depositor defined):AID1961, AID1965]; assay type: functional
# [3] = target: T2, G-protein coupled receptor 55 (Homo sapiens, UniProt Q9Y2T6); assay: SAR analysis of selective Agonists of GPR55 using an Image-Based Assay. [Related pubchem assays (depositor defined):AID1961, AID1965]; assay type: functional
# Cannabinoid receptor 1 [4] = target: T3, Cannabinoid receptor 1 (Homo sapiens, UniProt P21554); assay: SAR analysis of antagonists of the Cannabinoid Receptor 1 using an Image-Based Assay. [Related pubchem assays (depositor defined):AID1961, AID1965]; assay type: functional
# [5] = target: T4, Mannose-6-phosphate isomerase (Homo sapiens, UniProt P34949); assay: Confirmation of compounds inhibiting phosphomannose isomerase (PMI) via a fluorescence intensity assay using a high concentration of mannose 6-phosphate. [Related pubchem assays (depositor defined):AID1209, AID1220, AID1545, AID1553, AID1620]
# T4 sequence (P34949 whole entry): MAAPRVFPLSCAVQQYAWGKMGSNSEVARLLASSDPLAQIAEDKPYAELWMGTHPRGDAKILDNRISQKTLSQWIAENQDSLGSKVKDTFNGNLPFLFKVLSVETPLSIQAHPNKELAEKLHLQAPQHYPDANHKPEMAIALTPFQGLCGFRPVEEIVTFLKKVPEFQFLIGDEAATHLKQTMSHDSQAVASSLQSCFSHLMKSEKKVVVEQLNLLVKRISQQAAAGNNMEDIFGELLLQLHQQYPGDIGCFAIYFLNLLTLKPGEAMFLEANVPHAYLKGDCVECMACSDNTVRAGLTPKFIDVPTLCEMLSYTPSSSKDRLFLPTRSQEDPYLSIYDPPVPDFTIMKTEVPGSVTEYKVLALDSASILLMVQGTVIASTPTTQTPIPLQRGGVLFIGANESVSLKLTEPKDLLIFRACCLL
# [6] = target: T4, Mannose-6-phosphate isomerase; assay: phosphomannose isomerase inhibition – biochemical, fluorescence intensity, confirmation (AID 1535)
# [7] = target: Alkaline phosphatase, placental type (Homo sapiens, UniProt P05187); assay: human placental alkaline phosphatase inhibition – biochemical, luminescence, confirmation (AID 1512); assay type: functional
# NS3 = NS3 (Hepatitis C virus, UniProt A3EZJ3); assay: PubChem AID 2173; parameters: species or system Hepacivirus hominis
# [8] = target: Induced myeloid leukemia cell differentiation protein Mcl-1 (Homo sapiens, UniProt Q07820); assay type: functional
# [9] = target: Intestinal-type alkaline phosphatase (Homo sapiens, UniProt P09923); assay: activation of human intestinal alkaline phosphatase – biochemical, dose response (AID 488873); assay type: functional
# [10] = target: Intestinal-type alkaline phosphatase (Mus musculus, UniProt P24822); assay: mouse intestinal alkaline phosphatase activators, dose response, biochemical, luminescence, uHTS hits (AID 488783); assay type: functional
# [11] = target: T5, Alkaline phosphatase, tissue-nonspecific isozyme (Homo sapiens, UniProt P05186); assay: activation of tissue-nonspecific alkaline phosphatase – biochemical, TNAP isozyme, mouse IAP uHTS hits, selectivity assay for mouse IAP activator project, dose response (AID 488880); assay type: functional
# T5 sequence (P05186 whole entry): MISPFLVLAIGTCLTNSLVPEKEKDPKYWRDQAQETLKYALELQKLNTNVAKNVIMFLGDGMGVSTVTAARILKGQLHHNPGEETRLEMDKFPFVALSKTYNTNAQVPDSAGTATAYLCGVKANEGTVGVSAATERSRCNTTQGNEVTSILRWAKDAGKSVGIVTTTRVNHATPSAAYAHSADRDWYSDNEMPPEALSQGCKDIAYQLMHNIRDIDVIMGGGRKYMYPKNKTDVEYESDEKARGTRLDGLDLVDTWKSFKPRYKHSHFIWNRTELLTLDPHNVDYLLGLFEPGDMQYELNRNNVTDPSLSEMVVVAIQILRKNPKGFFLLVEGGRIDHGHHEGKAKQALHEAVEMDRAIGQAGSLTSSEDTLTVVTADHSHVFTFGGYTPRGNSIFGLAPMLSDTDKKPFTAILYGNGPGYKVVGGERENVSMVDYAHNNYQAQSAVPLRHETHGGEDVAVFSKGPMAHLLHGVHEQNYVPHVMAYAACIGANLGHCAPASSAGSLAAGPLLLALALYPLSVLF
# [12] = target: 1-phosphatidylinositol 4,5-bisphosphate phosphodiesterase gamma-1 (Homo sapiens, UniProt P19174); assay: Counterscreen for inhibitors of phospholipase C isozymes (PLC-B3): Fluorescence-based biochemical high throughput dose response assay to identify inhibitors of phospholipase C isozymes (PLC-gamma1).
# [13] = target: 1-phosphatidylinositol 4,5-bisphosphate phosphodiesterase beta-3 (Homo sapiens, UniProt Q01970); assay: Fluorescence-based biochemical high throughput dose response assay to identify inhibitors of phospholipase C isozymes (PLC-B3).
# [14] = target: Type-1 angiotensin II receptor (Homo sapiens, UniProt P30556); assay: agonist activity at AGTR1 – cell-based, uHTS hits, selectivity assay for APJ receptor agonist project, dose response (AID 488865); assay type: functional;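 note: beta-arrestin recruitment to AT1 measured by enzyme fragment complementation luminescence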
# [15] = target: T6, E3 ubiquitin-protein ligase XIAP (Homo sapiens, UniProt P98170); assay: Counter Screen using XIAP-Bir3 of the Chemical Antagonists of IAP-family anti-apoptotic proteins confirmation assay. [Related pubchem assays (depositor defined):AID1018, AID1449, AID1513, AID1638, AID1749, AID1750, AID488957, AID488963]
# [16] = target: T6, E3 ubiquitin-protein ligase XIAP; assay: Chemical Antagonists of IAP-family anti-apoptotic proteins confirmation. [Related pubchem assays (depositor defined):AID1018, AID1513, AID1514, AID1638, AID1749, AID1750, AID488957, AID488963]
# Hexokinase HKDC1 = Hexokinase HKDC1 (Homo sapiens, UniProt Q2TB90); assay: activation of HKDC1 glucose phosphorylation – biochemical, W721R variant, dose response (AID 504730); assay type: functional
# Hexokinase-1 = Hexokinase-1 (Homo sapiens, UniProt P19367); assay: HK1 enzyme activation by HKDC1 hits – biochemical, selectivity assay for HKDC1 activator project, dose response (AID 504762); assay type: functional
# [17] = target: T2, G-protein coupled receptor 55; assay: SAR analysis of selective Agonists of GPR55 using an Image-Based Assay - Set 2. [Related pubchem assays (depositor defined):AID1961, AID1965]; assay type: functional
# [18] = target: T7, G-protein coupled receptor 35 (Homo sapiens, UniProt Q9HC97); assay: SAR analysis of Agonists of the GPR35 Receptor using an Image-Based Assay - Set 3. [Related pubchem assays (depositor defined):AID1961, AID1965]; assay type: functional
# Cannabinoid receptor 1 [19] = target: T3, Cannabinoid receptor 1; assay: SAR analysis of antagonists of the Cannabinoid Receptor 1 using an Image-Based Assay - Set 3. [Related pubchem assays (depositor defined):AID1961, AID1965]; assay type: functional
# Cannabinoid receptor 1 [20] = target: T3, Cannabinoid receptor 1; assay: SAR analysis of agonists of the Cannabinoid Receptor 1 using an Image-Based Assay - Set 3. [Related pubchem assays (depositor defined):AID1961, AID1965]; assay type: functional
# [21] = target: T7, G-protein coupled receptor 35; assay: SAR analysis of Antagonists of the GPR35 Receptor using an Image-Based Assay - Set 4. [Related pubchem assays (depositor defined):[…]]; assay type: functional
# Ion channel NompC = Ion channel NompC (Danio rerio, UniProt Q7T1G6); assay: Dose response cell-based high-throughput screening assay for agonists of the transient receptor potential channel N1 (TRPN1). [Related pubchem assays (depositor defined):AID1424, AID1448]; assay type: functional
# Mucolipin-3 = Mucolipin-3 (Homo sapiens, UniProt Q8TDD5); assay: Fluorescence counterscreen assay for […] agonists: dose response cell-based high-throughput screening assay to identify agonists of the transient receptor potential channel ML3 (TRPML3). [Related pubchem assays: 1424, 1448 ]; assay type: functional
# [22] = target: T8, High affinity choline transporter 1 (Homo sapiens, UniProt Q9GZV3); assay: human choline transporter blockers, potency – cell-based, 5-point CRC, membrane potential dye, dose response (AID 504840); assay type: functional
# T8 sequence (Q9GZV3 whole entry): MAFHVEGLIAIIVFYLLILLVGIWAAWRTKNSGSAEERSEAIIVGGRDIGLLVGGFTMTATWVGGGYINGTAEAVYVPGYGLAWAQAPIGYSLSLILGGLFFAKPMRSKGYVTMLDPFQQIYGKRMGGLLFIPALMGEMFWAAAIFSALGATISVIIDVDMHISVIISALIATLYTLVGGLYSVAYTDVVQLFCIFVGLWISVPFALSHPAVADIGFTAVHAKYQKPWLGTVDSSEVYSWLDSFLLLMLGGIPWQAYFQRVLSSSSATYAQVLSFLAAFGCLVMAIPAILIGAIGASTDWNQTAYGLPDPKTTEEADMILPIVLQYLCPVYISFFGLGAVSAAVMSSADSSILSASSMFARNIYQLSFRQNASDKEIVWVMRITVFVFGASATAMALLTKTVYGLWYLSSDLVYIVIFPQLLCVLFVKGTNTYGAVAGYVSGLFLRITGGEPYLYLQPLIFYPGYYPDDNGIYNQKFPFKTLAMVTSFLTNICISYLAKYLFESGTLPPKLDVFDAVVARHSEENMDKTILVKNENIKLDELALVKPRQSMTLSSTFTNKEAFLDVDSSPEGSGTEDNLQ
# [23] = target: DNA damage-inducible transcript 3 protein (Mus musculus, UniProt P35639); assay type: functional, Cricetulus griseus
# Coagulation factor XII = target: T9, Coagulation factor XII (Homo sapiens, UniProt P00748); assay: Factor XIIa Dose Response Confirmation from Single Well HTS. [Related pubchem assays (depositor defined):AID701]; assay type: functional
# T9 sequence (P00748 whole entry): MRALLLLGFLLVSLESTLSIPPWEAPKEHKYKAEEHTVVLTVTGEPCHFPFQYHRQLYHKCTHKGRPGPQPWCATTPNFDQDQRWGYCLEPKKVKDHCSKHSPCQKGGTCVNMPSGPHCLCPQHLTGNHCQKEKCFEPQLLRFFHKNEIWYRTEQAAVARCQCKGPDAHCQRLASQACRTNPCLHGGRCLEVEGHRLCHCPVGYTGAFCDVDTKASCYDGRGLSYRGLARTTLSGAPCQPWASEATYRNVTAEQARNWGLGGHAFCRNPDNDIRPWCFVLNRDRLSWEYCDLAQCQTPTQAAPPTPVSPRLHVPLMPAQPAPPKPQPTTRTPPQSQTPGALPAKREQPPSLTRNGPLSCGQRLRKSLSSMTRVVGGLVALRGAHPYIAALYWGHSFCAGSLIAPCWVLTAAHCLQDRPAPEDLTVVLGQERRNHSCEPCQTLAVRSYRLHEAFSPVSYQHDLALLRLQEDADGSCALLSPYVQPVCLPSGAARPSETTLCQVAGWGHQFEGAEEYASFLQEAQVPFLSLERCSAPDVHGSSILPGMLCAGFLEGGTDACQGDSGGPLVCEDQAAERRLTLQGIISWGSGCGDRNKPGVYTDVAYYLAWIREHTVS
# [24] = target: Sphingosine 1-phosphate receptor 1 (Homo sapiens, UniProt P21453); assay: Fluorescence-based counterscreen assay for S1P4 agonists: Cell-based dose response high throughput screening assay to identify agonists of the Sphingosine 1-Phosphate Receptor 1 (S1P1). [Related pubchem assays (depositor defined):AID1509, AID1523, AID1801, AID463107, AID463118, AID463119, AID463122, AID463123, AID463129, AID463225, AID504400, AID504460]; assay type: functional
# [25] = target: Sphingosine 1-phosphate receptor 4 (Homo sapiens, UniProt O95977); assay: Fluorescence dose response cell-based high throughput screening assay for agonists of the Sphingosine 1-Phosphate Receptor 4 (S1P4). [Related pubchem assays: 1509 (Primary screen.), 1523 (Confirmation screen in triplicates.)]; assay type: functional
# Sequence of Sphingosine 1-phosphate receptor 4 (O95977 whole entry): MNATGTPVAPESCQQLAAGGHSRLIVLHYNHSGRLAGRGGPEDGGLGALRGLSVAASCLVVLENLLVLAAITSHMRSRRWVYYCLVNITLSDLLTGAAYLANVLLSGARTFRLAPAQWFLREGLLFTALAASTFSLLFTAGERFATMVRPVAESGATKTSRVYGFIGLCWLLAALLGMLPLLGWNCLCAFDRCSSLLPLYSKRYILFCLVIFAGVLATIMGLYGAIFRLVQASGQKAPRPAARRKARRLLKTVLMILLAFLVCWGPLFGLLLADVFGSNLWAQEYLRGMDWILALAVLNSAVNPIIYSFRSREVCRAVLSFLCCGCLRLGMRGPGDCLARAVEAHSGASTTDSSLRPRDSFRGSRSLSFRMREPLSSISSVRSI
# T1 sequence (P34972 whole entry): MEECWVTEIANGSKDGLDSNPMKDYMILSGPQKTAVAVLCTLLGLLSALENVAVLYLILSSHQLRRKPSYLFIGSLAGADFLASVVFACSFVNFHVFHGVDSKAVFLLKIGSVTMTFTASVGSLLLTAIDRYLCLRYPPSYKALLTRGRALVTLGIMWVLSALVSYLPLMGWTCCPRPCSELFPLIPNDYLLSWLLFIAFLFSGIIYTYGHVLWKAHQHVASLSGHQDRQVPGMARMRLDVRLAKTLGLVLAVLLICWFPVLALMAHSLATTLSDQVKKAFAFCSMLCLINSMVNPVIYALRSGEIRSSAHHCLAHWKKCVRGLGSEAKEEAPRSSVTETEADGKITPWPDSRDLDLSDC
# T3 sequence (P21554 whole entry): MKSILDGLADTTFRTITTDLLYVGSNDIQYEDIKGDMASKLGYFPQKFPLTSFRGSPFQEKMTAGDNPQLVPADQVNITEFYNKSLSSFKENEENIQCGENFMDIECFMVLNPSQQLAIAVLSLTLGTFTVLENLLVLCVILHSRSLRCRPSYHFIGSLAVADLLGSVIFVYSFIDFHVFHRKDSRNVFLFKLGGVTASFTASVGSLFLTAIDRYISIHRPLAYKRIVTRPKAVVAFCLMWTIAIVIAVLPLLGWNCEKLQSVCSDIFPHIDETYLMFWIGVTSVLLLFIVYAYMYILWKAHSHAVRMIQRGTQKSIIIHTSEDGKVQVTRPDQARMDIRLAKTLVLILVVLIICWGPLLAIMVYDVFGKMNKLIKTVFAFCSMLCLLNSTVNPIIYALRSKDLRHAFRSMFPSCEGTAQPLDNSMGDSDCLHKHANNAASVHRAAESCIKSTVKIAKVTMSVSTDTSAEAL
# T7 sequence (Q9HC97 whole entry): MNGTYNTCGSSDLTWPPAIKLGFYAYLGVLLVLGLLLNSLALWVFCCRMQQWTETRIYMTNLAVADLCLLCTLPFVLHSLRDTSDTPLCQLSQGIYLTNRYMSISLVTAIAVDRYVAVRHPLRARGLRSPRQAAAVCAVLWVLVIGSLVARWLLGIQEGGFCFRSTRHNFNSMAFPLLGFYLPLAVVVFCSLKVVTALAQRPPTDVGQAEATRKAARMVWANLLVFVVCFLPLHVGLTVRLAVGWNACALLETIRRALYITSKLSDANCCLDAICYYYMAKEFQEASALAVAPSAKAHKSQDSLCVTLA
# T6 sequence (P98170 whole entry): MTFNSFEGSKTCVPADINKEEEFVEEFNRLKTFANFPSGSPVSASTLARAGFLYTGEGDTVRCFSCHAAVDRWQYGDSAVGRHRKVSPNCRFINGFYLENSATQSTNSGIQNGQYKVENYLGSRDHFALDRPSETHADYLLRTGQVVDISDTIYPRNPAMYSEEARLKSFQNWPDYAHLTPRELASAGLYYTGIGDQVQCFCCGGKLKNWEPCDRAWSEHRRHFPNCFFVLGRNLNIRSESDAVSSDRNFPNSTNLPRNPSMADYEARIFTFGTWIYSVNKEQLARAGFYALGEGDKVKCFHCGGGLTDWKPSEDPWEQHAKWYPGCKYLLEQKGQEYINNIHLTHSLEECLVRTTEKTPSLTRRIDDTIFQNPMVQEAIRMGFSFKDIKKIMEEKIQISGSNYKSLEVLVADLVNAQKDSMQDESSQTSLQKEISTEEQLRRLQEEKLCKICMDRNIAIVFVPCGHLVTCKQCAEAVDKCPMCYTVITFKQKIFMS
# T2 sequence (Q9Y2T6 whole entry): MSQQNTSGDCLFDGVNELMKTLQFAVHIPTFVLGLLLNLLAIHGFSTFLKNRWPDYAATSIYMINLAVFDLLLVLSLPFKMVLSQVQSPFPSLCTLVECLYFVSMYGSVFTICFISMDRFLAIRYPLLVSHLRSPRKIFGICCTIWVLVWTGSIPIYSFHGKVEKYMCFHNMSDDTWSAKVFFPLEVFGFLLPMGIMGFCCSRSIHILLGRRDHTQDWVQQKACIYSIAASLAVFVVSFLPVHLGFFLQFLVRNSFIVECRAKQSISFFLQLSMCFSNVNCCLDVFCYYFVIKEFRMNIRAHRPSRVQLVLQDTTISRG
# Sequence of NS3 (A3EZJ3 whole entry): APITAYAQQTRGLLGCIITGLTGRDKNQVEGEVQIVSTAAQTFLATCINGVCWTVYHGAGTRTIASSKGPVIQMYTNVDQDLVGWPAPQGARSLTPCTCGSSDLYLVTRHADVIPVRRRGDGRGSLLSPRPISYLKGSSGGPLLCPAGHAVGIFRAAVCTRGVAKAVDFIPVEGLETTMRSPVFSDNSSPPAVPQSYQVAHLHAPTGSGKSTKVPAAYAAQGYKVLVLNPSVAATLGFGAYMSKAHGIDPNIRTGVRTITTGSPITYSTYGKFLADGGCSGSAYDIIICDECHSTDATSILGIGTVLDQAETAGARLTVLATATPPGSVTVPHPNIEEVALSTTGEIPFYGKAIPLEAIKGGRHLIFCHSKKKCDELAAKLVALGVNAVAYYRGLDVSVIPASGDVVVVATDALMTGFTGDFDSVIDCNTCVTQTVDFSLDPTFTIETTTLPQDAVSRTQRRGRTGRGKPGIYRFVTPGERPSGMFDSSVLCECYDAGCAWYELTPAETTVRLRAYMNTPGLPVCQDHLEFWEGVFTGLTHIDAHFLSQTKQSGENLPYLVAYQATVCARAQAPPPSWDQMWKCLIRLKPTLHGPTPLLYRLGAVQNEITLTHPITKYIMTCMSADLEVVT
# Sequence of Mucolipin-3 (Q8TDD5 whole entry): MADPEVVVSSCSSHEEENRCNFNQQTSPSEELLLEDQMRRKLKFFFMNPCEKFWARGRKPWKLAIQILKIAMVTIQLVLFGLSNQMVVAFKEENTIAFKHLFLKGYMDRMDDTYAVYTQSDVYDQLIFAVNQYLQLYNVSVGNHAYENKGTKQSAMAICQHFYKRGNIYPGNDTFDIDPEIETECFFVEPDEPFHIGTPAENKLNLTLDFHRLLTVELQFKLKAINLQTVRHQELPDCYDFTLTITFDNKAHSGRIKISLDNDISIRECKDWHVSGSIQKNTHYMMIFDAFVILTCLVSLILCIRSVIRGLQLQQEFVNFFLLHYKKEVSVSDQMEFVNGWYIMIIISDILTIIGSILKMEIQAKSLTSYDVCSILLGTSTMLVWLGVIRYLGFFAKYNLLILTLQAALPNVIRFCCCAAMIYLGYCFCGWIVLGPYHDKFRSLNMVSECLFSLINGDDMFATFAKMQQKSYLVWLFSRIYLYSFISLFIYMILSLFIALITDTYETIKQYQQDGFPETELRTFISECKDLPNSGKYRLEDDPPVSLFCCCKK
# Sequence of Intestinal-type alkaline phosphatase (Mus musculus, UniProt P24822) (P24822 whole entry): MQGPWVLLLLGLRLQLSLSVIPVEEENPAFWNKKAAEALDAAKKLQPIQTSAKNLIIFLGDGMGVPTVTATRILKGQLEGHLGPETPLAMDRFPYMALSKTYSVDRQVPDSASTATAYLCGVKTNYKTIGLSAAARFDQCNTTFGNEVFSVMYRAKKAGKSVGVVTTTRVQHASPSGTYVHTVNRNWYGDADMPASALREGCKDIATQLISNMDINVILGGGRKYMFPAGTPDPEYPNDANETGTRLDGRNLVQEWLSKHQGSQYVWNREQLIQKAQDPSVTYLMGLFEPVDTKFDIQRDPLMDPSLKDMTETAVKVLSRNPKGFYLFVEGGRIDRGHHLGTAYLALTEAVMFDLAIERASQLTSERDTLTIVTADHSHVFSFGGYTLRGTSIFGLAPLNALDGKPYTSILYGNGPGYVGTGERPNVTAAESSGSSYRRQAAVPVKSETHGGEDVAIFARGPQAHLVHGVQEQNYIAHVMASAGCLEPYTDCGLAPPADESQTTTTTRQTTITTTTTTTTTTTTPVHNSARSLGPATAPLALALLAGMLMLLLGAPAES
# Sequence of Type-1 angiotensin II receptor (P30556 whole entry, the tested form may be a part): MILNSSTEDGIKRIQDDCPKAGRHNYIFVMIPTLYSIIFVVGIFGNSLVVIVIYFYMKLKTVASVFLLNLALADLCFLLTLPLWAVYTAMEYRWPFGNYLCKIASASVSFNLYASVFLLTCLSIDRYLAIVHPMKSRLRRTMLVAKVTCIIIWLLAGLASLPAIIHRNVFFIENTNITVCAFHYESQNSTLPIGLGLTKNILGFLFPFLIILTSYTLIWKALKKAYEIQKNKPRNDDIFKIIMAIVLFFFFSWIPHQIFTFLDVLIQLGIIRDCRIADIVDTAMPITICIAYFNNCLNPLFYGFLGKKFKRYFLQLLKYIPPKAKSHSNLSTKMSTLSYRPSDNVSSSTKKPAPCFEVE
# Sequence of Induced myeloid leukemia cell differentiation protein Mcl-1 (Q07820 whole entry): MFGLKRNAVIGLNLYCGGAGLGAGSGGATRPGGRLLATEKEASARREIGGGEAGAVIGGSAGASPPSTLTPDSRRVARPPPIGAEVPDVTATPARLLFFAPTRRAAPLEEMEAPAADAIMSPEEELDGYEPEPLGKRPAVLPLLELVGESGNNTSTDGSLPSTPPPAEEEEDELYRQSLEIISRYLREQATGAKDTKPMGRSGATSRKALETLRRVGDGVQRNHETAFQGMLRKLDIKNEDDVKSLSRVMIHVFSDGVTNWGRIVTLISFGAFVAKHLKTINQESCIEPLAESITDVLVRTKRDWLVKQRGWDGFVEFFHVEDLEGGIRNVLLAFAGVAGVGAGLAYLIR
smiles,measurement,setting,value
CCCN(CCC)Cc1c(C(=O)NN=Cc2c[nH]c3ccccc23)nnn1-c1nonc1N,IC50,Cannabinoid receptor 2 [1],> 32 µM (inactive)
same,EC50,Cannabinoid receptor 2 [2],> 32 µM (inactive)
same,EC50,[3],633 nM (active)
same,IC50,Cannabinoid receptor 1 [4],> 32 µM (inactive)
O=C1Nc2ccc([N+](=O)[O-])cc2C12NNc1ccccc1O2 (stereo not drawn),IC50,[5],> 100 µM (inactive)
same,IC50,[6],> 100 µM (inactive)
same,IC50,[7],> 100 µM (inactive)
O=C1/C(=C/C=C/c2ccco2)SC(=S)N1c1ccc(O)cc1,IC50,NS3,5.35 µM (active)
same,IC50,[8],1.72 µM (active)
same,EC50,[9],84.7 µM (active)
same,EC50,[10],59 µM (active)
same,EC50,[11],91.3 µM (active)
same,IC50,[12],> 123 µM (inactive)
same,IC50,[13],> 123 µM (inactive)
Cc1cc(C)n2nc3nc(N4CCCCC4)nc(-c4ccco4)c3c2n1,EC50,[14],> 100 µM (inactive)
CC(C(=O)O)N1Cc2ccccc2C1=O (stereo not drawn),IC50,[15],> 200 µM (inactive)
same,IC50,[16],> 200 µM (inactive)
CSc1nc(N)nc2c1ncn2CC(=O)N[C@H](C)c1cccc2ccccc12,EC50,Hexokinase HKDC1,9.1 µM (active)
same,EC50,Hexokinase-1,11.8 µM (active)
O=C(Nc1cccc(S(=O)(=O)N2CCOCC2)c1)c1cc2c(s1)CCCC2,IC50,Cannabinoid receptor 2 [1],> 32 µM (inactive)
same,EC50,[17],> 32 µM (inactive)
same,EC50,Cannabinoid receptor 2 [2],> 32 µM (inactive)
same,EC50,[18],> 32 µM (inactive)
same,IC50,Cannabinoid receptor 1 [19],> 32 µM (inactive)
same,EC50,Cannabinoid receptor 1 [20],> 32 µM (inactive)
same,IC50,[21],> 32 µM (inactive)
CC(C)(C)S(=O)(=O)/C(C#N)=N/Nc1ccc(Cl)cc1,EC50,Ion channel NompC,> 29.9 µM (inactive)
same,EC50,Mucolipin-3,> 29.9 µM (not active)
same,IC50,[22],1.32 µM (active)
CCNC(=S)N/N=C/c1cc(Br)cc(Br)c1OC,Absolute IC50 (CHOP),[23],10 µM
Cc1cccc(C)c1OCC(=O)N/N=C/c1cc2c(cc1[N+](=O)[O-])OCO2,IC50,Coagulation factor XII,> 50 µM (inactive)
NC(=S)c1cc2ccc(O)cc2oc1=O,EC50,[24],52.9 µM (inactive)
same,EC50,[25],7.68 µM (active)
